Assay results reported in PMC12615385, “A combined chemo-enzymatic treatment for the oxidation of epoxy-based carbon fiber-reinforced polymers (CFRPs)” (Frontiers in Bioengineering and Biotechnology, 2025).

How the values were obtained:
Settings in all cases: 0.1 M acetate buffer pH 4, 25 °C, 30 min
ItL-03 = tested on: ItL-03
ItL-02 = tested on: ItL-02
ItL-01 = tested on: ItL-01
purified protein = substrate: CCn1c(=NN=c2sc3cc(S(=O)(=O)O)ccc3n2CC)sc2cc(S(=O)(=O)O)ccc21; experiment: purified protein; format: biochemical, Escherichia coli

| Km (ItL-03) [mM] | Km (ItL-02) [mM] | Km (ItL-01) [mM] | Molecule | Km (purified protein) [mM] | kcat (purified protein) [s⁻¹] |
| --- | --- | --- | --- | --- | --- |
| 7.76 | 3.64 ± 0.26 | 4.5 ± 1.42 | CCn1c(=NN=c2sc3cc(S(=O)(=O)O)ccc3n2CC)sc2cc(S(=O)(=O)O)ccc21 [ABTS, 2,2′-azino-bis(3-ethylbenzothiazoline-6-sulfonic acid)] |  |  |
|  |  |  | CueO (Escherichia coli K-12) (protein, codon-optimised synthetic gene in pET21a(+), E. coli T7 Shuffle, Ni-NTA purified; 50-60 kDa) AERPTLPIPDLLTTDARNRIQLTIGAGQSTFGGKTATTWGYNGNLLGPAVKLQRGKAVTVDIYNQLTEETTLHWHGLEVPGEVDGGPQGIIPPGGKRSVTLNVDQPAATCWFHPHQHGKTGRQVAMGLAGLVVIEDDEILKLMLPKQWGIDDVPVIVQDKKFSADGQIDYQLDVMTAAVGWFGDTLLTNGAIYPQHAAPRGWLRLRLLNGCNARSLNFATSDNRPLYVIASDGGLLPEPVKVSELPVLMGERFEVLVEVNDNKPFDLVTLPVSQMGMAIAPFDKPHPVMRIQPIAISASGALPDTLSSLPALPSLEGLTVRKLQLSMDPMLDMMGMQMLMEKYGDQAMAGMDHSQMMGHMGHGNMNHMNHGGKFDFHHANKINGQAFDMNKPMFAAAKGQYERWVISGVGDMMLHPFHIHGTQFRILSENGKPPAAHRAGWKDTVKVEGNVSEVLVKFNHDAPKEHAYMAHCHLLEHEDTGMMLGFTV | 2.39 ± 0.23 | 0.0045 ± 0.0005 |
